# From patent US6455540B1, “Methods of use of quinolone compounds against anaerobic pathogenic bacteria” (priority 1999, dated 2002)
# Assays:
# Assay in all cases: Agar dilution MIC
# Fusobacterium russii = format: cell-based; conditions: Fusobacterium russii
# [1] = tested on: Anaerobiospirillum thomasii; format: cell-based; conditions: 13 isolates
# [2] = tested on: Peptostreptococcus micros; format: cell-based; conditions: 12 isolates
# Porphyromonas spp. = format: cell-based, Porphyromonas cangingivalis, cansulci, circumdentaria, levii; conditions: Porphyromonas, 11 isolates
# Clostridium dfficile = format: cell-based, Clostridium difficile; conditions: Clostridium
# Veillonella spp. = format: cell-based; conditions: Veillonella, 24 isolates
# Porphyromonas macaccae = format: cell-based; conditions: 13 isolates
# [3] = tested on: Prevotella heparinolytica; format: cell-based; conditions: 16 isolates
# [4] = tested on: Prevotella denticola/loeschii group; format: cell-based; conditions: Prevotella denticola, read-out: Minimal Inhibitory Concentration 50% (MIC50); 6 isolates
# [5] = tested on: Actinomyces odontolyticus; format: cell-based; conditions: Schaalia odontolytica, 10 isolates
# [6] = tested on: Fusobacterium spp group 1; format: cell-based; conditions: Fusobacterium, 19 isolates
# Porphyromonas canoris = format: cell-based; conditions: 10 isolates
# [7] = tested on: Prevotella melaninogenica; format: cell-based; conditions: 12 isolates
# [8] = tested on: Fusobacterium spp. group 2; format: cell-based, Fusobacterium mortiferum, necrogenes, ulcerans; conditions: Fusobacterium, 12 isolates
# [9] = tested on: Peptostreptococcus magnus; format: cell-based; conditions: Finegoldia magna, 13 isolates
# [10] = tested on: Peptostreptococcus asaccharolyticus; format: cell-based; conditions: Peptoniphilus asaccharolyticus, 11 isolates
# Prevotella intermedia = format: cell-based; conditions: 11 isolates
# Clostridium ramosum = format: cell-based; conditions: Thomasclavelia ramosa, 10 isolates
# [11] = tested on: Clostridium clostridioforme; format: cell-based; conditions: Clostridium, 11 isolates
# [12] = tested on: Peptostreptococcus prevotii; format: cell-based; conditions: Anaerococcus prevotii, read-out: Minimal Inhibitory Concentration 50% (MIC50); 9 isolates
# Bacteroides tectum = format: cell-based; conditions: 22 isolates
# Prevotella bivia = format: cell-based; conditions: Prevotella bivia, 21 isolates
# Fusobacterium varium = format: cell-based; conditions: Fusobacterium varium, 17 isolates
# Bacteroides gracilis = format: cell-based, Bacteroides gracilis (Campylobacter gracilis); conditions: Campylobacter gracilis, 11 isolates
# Bilophila wadsworthia = format: cell-based; conditions: 16 isolates, agar supplemented with pyruvate
# Actinomyces israelii = format: cell-based; conditions: 6 isolates
# Porphyromonas gingivalis = format: cell-based; conditions: 13 isolates
# [13] = tested on: Prevotella buccae-oris group; format: cell-based; conditions: 22 isolates
# [14] = tested on: Porphyromonas asaccharolyticus; format: cell-based, Porphyromonas asaccharolytica; conditions: 11 isolates
# Clostridium inocuum = format: cell-based, Clostridium innocuum; conditions: Clostridium, 11 isolates
# Bacteroides ureolyticus = format: cell-based; conditions: Campylobacter ureolyticus, 17 isolates
# [15] = tested on: Anaerobiospirillum succiniciproducens; format: cell-based; conditions: 3 isolates
# [16] = read-out: Minimal Inhibitory Concentration 50% (MIC50)
# [17] = read-out: Minimal Inhibitory Concentration 90% (MIC90)
# [18] = Porphyromonas, read-out: Minimal Inhibitory Concentration 50% (MIC50)
# [19] = Porphyromonas, read-out: Minimal Inhibitory Concentration 90% (MIC90)
structure (smiles),measurement,setting,value
CC[C@H]1OC(=O)[C@H](C)[C@@H](O[C@H]2C[C@@](C)(OC)[C@@H](O)[C@H](C)O2)[C@H](C)[C@@H](O[C@@H]2O[C@H](C)C[C@H](N(C)C)[C@H]2O)[C@](C)(O)C[C@@H](C)C(=O)[C@H](C)[C@@H](O)[C@]1(C)O [Erythromycin],MIC50,Fusobacterium russii; [16],4 µg/mL
same,MIC90,Fusobacterium russii; [17],> 32 µg/mL
same,Minimal Inhibitory Concentration Range,[1],1 to 16 µg/mL
same,MIC50,"[1]; Anaerobiospirillum thomasii, read-out: Minimal Inhibitory Concentration 50% (MIC50)",4 µg/mL
same,MIC90,"[1]; Anaerobiospirillum thomasii, read-out: Minimal Inhibitory Concentration 90% (MIC90)",8 µg/mL
same,Minimal Inhibitory Concentration Range,[2],0.5 to 1 µg/mL
same,MIC50,"[2]; Parvimonas micra, read-out: Minimal Inhibitory Concentration 50% (MIC50)",0.5 µg/mL
same,MIC90,"[2]; Parvimonas micra, read-out: Minimal Inhibitory Concentration 90% (MIC90)",0.5 µg/mL
same,MIC50,Porphyromonas spp.; [16],0.06 µg/mL
same,MIC90,Porphyromonas spp.; [17],0.06 µg/mL
same,MIC50,Clostridium dfficile; [16],0.5 µg/mL
same,MIC90,"Clostridium dfficile; read-out: Minimal Inhibitory Concentration 90% (MIC90), 14 isolates",> 32 µg/mL
same,MIC90,Veillonella spp.; [17],> 32 µg/mL
same,MIC50,Veillonella spp.; [16],16 µg/mL
same,Minimal Inhibitory Concentration Range,Porphyromonas macaccae,0.06 to 0.25 µg/mL
same,MIC50,Porphyromonas macaccae; [18],0.125 µg/mL
same,MIC90,Porphyromonas macaccae; [19],0.25 µg/mL
same,Minimal Inhibitory Concentration Range,[3],0.25 to 0.5 µg/mL
same,MIC90,"[3]; Prevotella heparinolytica, read-out: Minimal Inhibitory Concentration 90% (MIC90)",0.25 µg/mL
same,MIC50,"[3]; Prevotella heparinolytica, read-out: Minimal Inhibitory Concentration 50% (MIC50)",0.25 µg/mL
same,MIC50,[4],0.25 µg/mL
same,MIC90,[5]; [17],0.03 µg/mL
same,MIC50,[5]; [16],≤ 0.015 µg/mL
same,MIC50,"[6]; GROUP1, read-out: Minimal Inhibitory Concentration 50% (MIC50)",8 µg/mL
same,MIC90,"[6]; GROUP1, read-out: Minimal Inhibitory Concentration 90% (MIC90)",32 µg/mL
same,Minimal Inhibitory Concentration Range,Porphyromonas canoris,0.03 to 0.25 µg/mL
same,MIC50,"Porphyromonas canoris; Porphyromonas canoris, read-out: Minimal Inhibitory Concentration 50% (MIC50)",0.06 µg/mL
same,MIC90,"Porphyromonas canoris; Porphyromonas canoris, read-out: Minimal Inhibitory Concentration 90% (MIC90)",0.125 µg/mL
same,Minimal Inhibitory Concentration Range,[7],0.06 to 32 µg/mL
same,MIC90,"[7]; Prevotella melaninogenica, read-out: Minimal Inhibitory Concentration 90% (MIC90)",8 µg/mL
same,MIC50,"[7]; Prevotella melaninogenica, read-out: Minimal Inhibitory Concentration 50% (MIC50)",1 µg/mL
same,MIC50,[8]; [16],> 32 µg/mL
same,MIC90,[8]; [17],> 32 µg/mL
same,MIC50,[9]; [16],4 µg/mL
same,MIC90,[9]; [17],> 32 µg/mL
same,MIC50,[10]; [16],4 µg/mL
same,MIC90,[10]; [17],> 32 µg/mL
same,Minimal Inhibitory Concentration Range,Prevotella intermedia,0.03 to 0.5 µg/mL
same,MIC90,"Prevotella intermedia; Prevotella intermedia, read-out: Minimal Inhibitory Concentration 90% (MIC90)",0.25 µg/mL
same,MIC50,"Prevotella intermedia; Prevotella intermedia, read-out: Minimal Inhibitory Concentration 50% (MIC50)",0.06 µg/mL
same,MIC50,Clostridium ramosum; [16],1 µg/mL
same,MIC90,Clostridium ramosum; [17],> 32 µg/mL
same,MIC90,[11]; [17],> 32 µg/mL
same,MIC50,[11]; [16],16 µg/mL
same,MIC50,[12],> 32 µg/mL
same,Minimal Inhibitory Concentration Range,Bacteroides tectum,0.25 to 1 µg/mL
same,MIC90,"Bacteroides tectum; Bacteroides pyogenes, read-out: Minimal Inhibitory Concentration 90% (MIC90)",0.5 µg/mL
same,MIC50,"Bacteroides tectum; Bacteroides pyogenes, read-out: Minimal Inhibitory Concentration 50% (MIC50)",0.5 µg/mL
same,MIC90,Prevotella bivia; [17],2 µg/mL
same,MIC50,Prevotella bivia; [16],1 µg/mL
same,MIC50,Fusobacterium varium; [16],> 32 µg/mL
same,MIC90,Fusobacterium varium; [17],> 32 µg/mL
same,MIC90,Bacteroides gracilis; [17],2 µg/mL
same,MIC50,Bacteroides gracilis; [16],1 µg/mL
same,Minimal Inhibitory Concentration Range,Bilophila wadsworthia,4 to 32 µg/mL
same,MIC90,"Bilophila wadsworthia; Bilophila wadsworthia, read-out: Minimal Inhibitory Concentration 90% (MIC90)",32 µg/mL
same,MIC50,"Bilophila wadsworthia; Bilophila wadsworthia, read-out: Minimal Inhibitory Concentration 50% (MIC50)",16 µg/mL
same,Minimal Inhibitory Concentration Range,Actinomyces israelii,0.03 µg/mL
same,MIC50,"Actinomyces israelii; Actinomyces israelii, read-out: Minimal Inhibitory Concentration 50% (MIC50)",0.03 µg/mL
same,Minimal Inhibitory Concentration Range,Porphyromonas gingivalis,0.06 to 0.5 µg/mL
same,MIC50,"Porphyromonas gingivalis; Porphyromonas gingivalis, read-out: Minimal Inhibitory Concentration 50% (MIC50)",0.125 µg/mL
same,MIC90,"Porphyromonas gingivalis; Porphyromonas gingivalis, read-out: Minimal Inhibitory Concentration 90% (MIC90)",0.5 µg/mL
same,Minimal Inhibitory Concentration Range,[13],0.5 to 8 µg/mL
same,MIC90,"[13]; Prevotella, read-out: Minimal Inhibitory Concentration 90% (MIC90)",2 µg/mL
same,MIC50,"[13]; Prevotella, read-out: Minimal Inhibitory Concentration 50% (MIC50)",1 µg/mL
same,Minimal Inhibitory Concentration Range,[14],0.03 to 32 µg/mL
same,MIC50,[14]; [18],0.03 µg/mL
same,MIC90,[14]; [19],32 µg/mL
same,MIC90,Clostridium inocuum; [17],> 32 µg/mL
same,MIC50,Clostridium inocuum; [16],> 32 µg/mL
same,MIC90,Bacteroides ureolyticus; [17],2 µg/mL
same,MIC50,Bacteroides ureolyticus; [16],0.025 µg/mL
same,Minimal Inhibitory Concentration Range,[15],8 to 16 µg/mL
same,MIC50,"[15]; Anaerobiospirillum succiniciproducens, read-out: Minimal Inhibitory Concentration 50% (MIC50)",16 µg/mL
